Data on 21 compounds can be found in patent publication US20170334934A1, “Macrocyclic picolinamides as fungicides” (DOW AGROSCIENCES LLC, priority 2014, published 2017).

The test system of experiment [1] is Mycosphaerella graminicola; Anamorph: Zymoseptoria tritici. Nature of the experiment: Fungicidal activity: Leaf Blotch of Wheat (SEPTTR), wheat seedlings. In kind it is in vivo. The note with it: for pest or weed control at 121.5 g/ha: Low Volume (121.5 g/H). The protocol:
Example A: Evaluation of Fungicidal Activity: Leaf Blotch of Wheat (Mycosphaerella graminicola; Anamorph: Zymoseptoria tritici; Bayer Code […]) Technical grades of materials were dissolved in acetone, which were then mixed with nine volumes of water containing 110 ppm Triton X-100. The fungicide solutions were applied onto wheat seedlings using an automated booth sprayer to run-off. All sprayed plants were allowed to air dry prior to further handling. All fungicides were evaluated using the aforementioned method for their activity vs. all target diseases, unless stated otherwise. Wheat leaf blotch and brown rust activity were also evaluated using track spray applications, in which case the fungicides were formulated as EC formulations, containing 0.1% Trycol 5941 in the spray solutions. Wheat plants (variety Yuma) were grown from seed in a greenhouse in 50% mineral soil/50% soil-less Metro mix until the first leaf was fully emerged, with 7-10 seedlings per pot. These plants were inoculated with an aqueous spore suspension of Zymoseptoria tritici either prior to or after fungicide treatments. After inoculation the plants were kept in 100% relative humidity (one day in a dark dew chamber followed by two to three days in a lighted dew chamber at 20° C.) to permit spores to germinate and infect the leaf. The plants were then transferred to a greenhouse set at 20° C. for disease to develop. When disease symptoms were fully expressed on the 1st leaves of untreated plants, infection levels were assessed on a scale of 0 to 100 percent disease severity. Percent disease control was calculated using the ratio of disease severity on treated plants relative to untreated plants.

A further experiment has as its system Puccinia triticina. The experiment can be described thus: Fungicidal activity: Wheat Brown Rust (PUCCRT), wheat seedlings. It is filed as in vivo. Particulars: for pest or weed control at 100 µg/mL: High Volume (100 ppm); for pest or weed control at 121.5 g/ha: Low Volume (121.5 g/H). The protocol: Technical grades of materials were dissolved in acetone, which were then mixed with nine volumes of water containing 110 ppm Triton X-100. The fungicide solutions were applied onto wheat seedlings using an automated booth sprayer to run-off. All sprayed plants were allowed to air dry prior to further handling. All fungicides were evaluated using the aforementioned method for their activity vs. all target diseases, unless stated otherwise. Wheat leaf blotch and brown rust activity were also evaluated using track spray applications, in which case the fungicides were formulated as EC formulations, containing 0.1% Trycol 5941 in the spray solutions. Wheat plants (variety Yuma) were grown from seed in a greenhouse in 50% mineral soil/50% soil-less Metro mix until the first leaf was fully emerged, with 7-10 seedlings per pot. These plants were inoculated with an aqueous spore suspension of Zymoseptoria tritici either prior to or after fungicide treatments. After inoculation the plants were kept in 100% relative humidity (one day in a dark dew chamber followed by two to three days in a lighted dew chamber at 20° C.) to permit spores to germinate and infect the leaf. The plants were then transferred to a greenhouse set at 20° C. for disease to develop. When disease symptoms were fully expressed on the 1st leaves of untreated plants, infection levels were assessed on a scale of 0 to 100 percent disease severity. Percent disease control was calculated using the ratio of disease severity on treated plants relative to untreated plants. Example B: Evaluation of Fungicidal Activity: Wheat Brown Rust (Puccinia triticina; Synonym: Puccinia recondita f. sp. tritici; Bayer Code PUCCRT) Wheat plants (variety Yuma) were grown from seed in a greenhouse in 50% mineral soil/50% soil-less Metro mix until the first leaf was fully emerged, with 7-10 seedlings per pot. These plants were inoculated with an aqueous spore suspension of Puccinia triticina either prior to or after fungicide treatments. After inoculation the plants were kept in a dark dew room at 22° C. with 100% relative humidity overnight to permit spores to germinate and infect the leaf. The plants were then transferred to a greenhouse set at 24° C. for disease to develop. Fungicide formulation, application and disease assessment followed the procedures as described in the Example A.

The mark [2] stands for this setting: 24 h, High Volume (100 ppm), 1 Day Protectant, wheat, read-out: SEPTTR disease control rating, 1DP.
The mark [3] stands for this setting: 72 h, High Volume (100 ppm), 3 Day Curative, wheat, read-out: SEPTTR disease control rating, 3DC.
[4] abbreviates: 24 h, 1 Day Protectant, read-out: PUCCRT disease control rating, 1DP.
[5] abbreviates: 72 h, 3 Day Curative, read-out: PUCCRT disease control rating, 3DC.

Read-outs that look alike come from different tables or passages of the source.

Consider `COc1ccnc(C(=O)N[C@H]2CCO[C@H](Cc3ccccc3)[C@@H](OCC(C)C)[C@H](C)OC2=O)c1O` [Compound 51], for which the pest or weed control at 100 µg/mL in experiment [1] (setting [2]) is more than 70%; in experiment [1] (setting [3]), less than 70%; in the experiment on Puccinia triticina (setting [4]) it was more than 70%; in the experiment on Puccinia triticina (setting [5]) it was more than 70%.
On to `COc1ccnc(C(=O)N[C@H]2CCO[C@H](Cc3ccc(F)cc3)[C@@H](Oc3ccccc3)[C@H](C)OC2=O)c1O` [Compound 52], for which the pest or weed control at 100 µg/mL (in experiment [1] (setting [2]); in experiment [1] (setting [3]); with Puccinia triticina (setting [4]); in the experiment on Puccinia triticina (setting [5])) was more than 70% each time.
Consider `COc1ccnc(C(=O)N[C@H]2CCO[C@H](Cc3ccc(F)cc3)[C@@H](OCC(C)C)[C@H](C)OC2=O)c1O` [Compound 53], for which the pest or weed control at 100 µg/mL (in experiment [1] (setting [2]); in experiment [1] (setting [3]); with Puccinia triticina (setting [4]); in the experiment on Puccinia triticina (setting [5])) was more than 70% throughout.
`COc1ccnc(C(=O)N[C@H]2CCO[C@H](Cc3ccc(F)cc3)[C@@H](OC(=O)C(C)C)[C@H](C)OC2=O)c1O` [Compound 54]: the pest or weed control at 100 µg/mL (in experiment [1] (setting [2]); in experiment [1] (setting [3]); with Puccinia triticina (setting [4]); in the experiment on Puccinia triticina (setting [5])) was more than 70% in each case.
`C=CCO[C@H]1[C@H](C)OC(=O)[C@@H](NC(=O)c2nccc(OC)c2O)CCO[C@@H]1Cc1ccc(F)cc1` [Compound 55, N-((2R,3S,4S,7S)-3-(allyloxy)-2-(4-fluorobenzyl)-4-methyl-6-oxo-1,5-dioxonan-7-yl)-3-hydroxy-4-methoxypicolinamide]: the pest or weed control at 100 µg/mL (in experiment [1] (setting [2]); in experiment [1] (setting [3]); with Puccinia triticina (setting [4]); in the experiment on Puccinia triticina (setting [5])) was more than 70% each time.
As to `CCCO[C@H]1[C@H](C)OC(=O)[C@@H](NC(=O)c2nccc(OC)c2O)CCO[C@@H]1Cc1ccc(F)cc1` [Compound 56, N-((2R,3S,4S,7S)-2-(4-fluorobenzyl)-4-methyl-6-oxo-3-propoxy-1,5-dioxonan-7-yl)-3-hydroxy-4-methoxypicolinamide], the pest or weed control at 100 µg/mL is more than 70% in experiment [1] (24 h, read-out: SEPTTR disease control rating, 1DP); more than 70% in experiment [1] (72 h, read-out: SEPTTR disease control rating, 3DC); more than 70% in the experiment on Puccinia triticina (setting [4]); more than 70% with Puccinia triticina (setting [5]).
On to `COc1ccnc(C(=O)N[C@H]2CCO[C@H](Cc3ccccc3)[C@@H](Oc3ccccc3)[C@H](C)OC2=O)c1O` [Compound 57], for which the pest or weed control at 100 µg/mL (in experiment [1] (setting [2]); in experiment [1] (setting [3]); with Puccinia triticina (setting [4]); in the experiment on Puccinia triticina (setting [5])) was more than 70% throughout.
In the case of `COc1ccnc(C(=O)N[C@H]2CCO[C@H](CC3CCCC3)[C@@H](Oc3ccccc3)[C@H](C)OC2=O)c1O` [Compound 58], the pest or weed control at 100 µg/mL (in experiment [1] (setting [2]); in experiment [1] (setting [3]); in the experiment with Puccinia triticina (setting [4]); with Puccinia triticina (setting [5])) was more than 70% throughout.
On to `COc1ccc(C[C@H]2OCC[C@H](NC(=O)c3nccc(OC)c3O)C(=O)O[C@@H](C)[C@@H]2OCC2CC2)cc1` [Compound 59], for which the pest or weed control at 100 µg/mL in experiment [1] (setting [2]) was less than 70%; in experiment [1] (setting [3]) it was more than 70%; with Puccinia triticina (setting [4]), more than 70%; with Puccinia triticina (setting [5]), more than 70%.
Consider `COc1ccc(C[C@H]2OCC[C@H](NC(=O)c3nccc(OC)c3O)C(=O)O[C@@H](C)[C@@H]2Oc2ccccc2)cc1` [Compound 60], for which the pest or weed control at 100 µg/mL (in experiment [1] (setting [2]); in experiment [1] (setting [3]); in the experiment with Puccinia triticina (setting [4]); with Puccinia triticina (setting [5])) was more than 70% in each case.
Regarding `C=C(C)CO[C@H]1[C@H](C)OC(=O)[C@@H](NC(=O)c2nccc(OC)c2O)CCO[C@@H]1CC` [Compound 61], the pest or weed control at 100 µg/mL in experiment [1] (setting [2]) is less than 70%; in experiment [1] (setting [3]) it was more than 70%; in the experiment with Puccinia triticina (setting [4]) it was more than 70%; in the experiment with Puccinia triticina (setting [5]), more than 70%.
For `CC[C@H]1OCC[C@H](NC(=O)c2nccc(OC)c2O)C(=O)O[C@@H](C)[C@@H]1OCC(C)C` [Compound 62], the pest or weed control at 100 µg/mL was less than 70% in experiment [1] (setting [2]), more than 70% in experiment [1] (setting [3]), more than 70% in the experiment on Puccinia triticina (setting [4]) and more than 70% in the experiment on Puccinia triticina (setting [5]).
`CC[C@H]1OCC[C@H](NC(=O)c2nccc(OC)c2O)C(=O)O[C@@H](C)[C@@H]1Oc1ccccc1` [Compound 63]: the pest or weed control at 100 µg/mL (in experiment [1] (setting [2]); in experiment [1] (setting [3]); in the experiment with Puccinia triticina (setting [4]); in the experiment with Puccinia triticina (setting [5])) was more than 70% in each case.
Consider `CC[C@H]1OCC[C@H](NC(=O)c2nccc(OC)c2O)C(=O)O[C@@H](C)[C@@H]1Oc1ccc(F)cc1` [Compound 64], for which the pest or weed control at 100 µg/mL (in experiment [1] (setting [2]); in experiment [1] (setting [3]); in the experiment with Puccinia triticina (setting [4]); in the experiment with Puccinia triticina (setting [5])) was more than 70% throughout.
On to `CC[C@H]1OCC[C@H](NC(=O)c2nccc(OC)c2O)C(=O)O[C@@H](C)[C@@H]1OC(=O)C(C)C` [Compound 65], for which the pest or weed control at 100 µg/mL in experiment [1] (setting [2]) was less than 70%; in experiment [1] (setting [3]) it was less than 70%; with Puccinia triticina (setting [4]), more than 70%; with Puccinia triticina (setting [5]) it was more than 70%.
As for `COc1ccnc(C(=O)N[C@H]2CCOC[C@@H](OCc3ccccc3)[C@H](C)OC2=O)c1O` [Compound 66], the pest or weed control at 100 µg/mL in experiment [1] (setting [2]) was less than 70%; in experiment [1] (setting [3]) it was less than 70%; in the experiment with Puccinia triticina (setting [4]), more than 70%; in the experiment on Puccinia triticina (setting [5]) it was more than 70%.
As to `COc1ccnc(C(=O)N[C@H]2CCOC[C@@H](OCC(C)C)[C@H](C)OC2=O)c1O` [Compound 67], the pest or weed control at 100 µg/mL (in experiment [1] (setting [2]); in experiment [1] (setting [3]); with Puccinia triticina (setting [4]); with Puccinia triticina (setting [5])) was more than 70% in each case.
Take `COc1ccnc(C(=O)N[C@H]2CCOC[C@@H](OCCCC(F)(F)F)[C@H](C)OC2=O)c1O` [Compound 68]: the pest or weed control at 100 µg/mL was less than 70% in experiment [1] (setting [2]), less than 70% in experiment [1] (setting [3]), more than 70% in the experiment on Puccinia triticina (setting [4]) and more than 70% in the experiment with Puccinia triticina (setting [5]).
As for `COc1ccnc(C(=O)N[C@H]2CCOC[C@@H](Oc3ccccc3)[C@H](C)OC2=O)c1O` [Compound 69], the pest or weed control at 100 µg/mL (in experiment [1] (setting [2]); in experiment [1] (setting [3]); in the experiment with Puccinia triticina (setting [4]); in the experiment on Puccinia triticina (setting [5])) was more than 70% throughout.
In the case of `COc1ccnc(C(=O)N[C@H]2CCOC[C@@H](OC(=O)C(C)C)[C@H](C)OC2=O)c1O` [Compound 70], the pest or weed control at 100 µg/mL (in experiment [1] (setting [2]); in experiment [1] (setting [3]); in the experiment on Puccinia triticina (setting [4]); in the experiment with Puccinia triticina (setting [5])) was less than 70% each time.
Consider `COc1ccnc(C(=O)N[C@H]2CCO[C@H](Cc3ccccc3)[C@@H](OCC(C)C)[C@H](C)OC2=O)c1OC(C)=O` [Compound 71], for which the pest or weed control at 121.5 g/ha was more than 70% in experiment [1] (24 h, 1 Day Protectant, wheat, read-out: SEPTTR disease control rating, 1DP); more than 70% in experiment [1] (72 h, 3 Day Curative, wheat, read-out: SEPTTR disease control rating, 3DC); more than 70% with Puccinia triticina (setting [4]); more than 70% with Puccinia triticina (setting [5]).
